Laboratory results: the NIST ThermoML archive (doi:10.1016/j.jct.2013.12.009)

Experiments:
[1] = for speed of sound / kinematic viscosity / mass density: Liquid; for speed of sound: Sing-around technique in a fixed-path interferometer; for surface tension liquid-gas: Pendant drop shape; for kinematic viscosity: Capillary tube (Ostwald / Ubbelohde) method; for mass density: Vibrating tube method
[2] = xn = mol fraction of the nth substance listed; conditions: for surface tension liquid-gas: Pendant drop shape; for viscosity / mass density: 101 kPa, Liquid; for viscosity: Concentric cylinders viscometry; for mass density: Vibrating tube method

CCCC[N+]1(C)CCCC1.O=S(=O)([N-]S(=O)(=O)C(F)(F)F)C(F)(F)F
[1], 101.33 kPa
Conditions | kinematic viscosity [m2/s] | mass density [kg/m3] | speed of sound [m/s]
288.02 K | – | – | 1293.9
288.15 K | 8.9e-05 | 1403.37 | –
293.01 K | – | – | 1281.8
293.15 K | 6.96e-05 | 1398.92 | –
298.01 K | – | – | 1270
298.15 K | 5.57e-05 | 1394.49 | –
303.15 K | 4.52e-05 | 1390.09 | –
303.2 K | – | – | 1258
308.14 K | – | – | 1246.8
308.15 K | 3.69e-05 | 1385.66 | –
313.15 K | 3.06e-05 | 1381.29 | 1235.7
318.12 K | – | – | 1224.7
318.15 K | 2.55e-05 | 1376.92 | –
323.13 K | – | – | 1213.8
323.15 K | 2.15e-05 | 1372.54 | –

[1]
Conditions | surface tension liquid-gas [mN/m]
288.15 K | 33.71
293.15 K | 33.44
298.15 K | 33.22
303.15 K | 33.02
308.15 K | 32.82
313.15 K | 32.6
318.15 K | 32.35
323.15 K | 32.15

CCC[N+]1(C)CCCC1.O=S(=O)([N-]S(=O)(=O)C(F)(F)F)C(F)(F)F
[1], 101.33 kPa
Conditions | kinematic viscosity [m2/s] | mass density [kg/m3] | speed of sound [m/s]
288.01 K | – | – | 1294.4
288.15 K | 6.82e-05 | 1436.86 | –
293.01 K | – | – | 1282.8
293.15 K | 5.33e-05 | 1432.36 | –
297.99 K | – | – | 1271.3
298.15 K | 4.26e-05 | 1427.83 | –
303.15 K | 3.48e-05 | 1423.32 | –
303.24 K | – | – | 1259.5
308.15 K | 2.88e-05 | 1418.81 | –
308.21 K | – | – | 1248.6
313.15 K | 2.42e-05 | 1414.3 | –
313.2 K | – | – | 1237.6
318.15 K | 2.06e-05 | 1409.86 | –
318.16 K | – | – | 1226.9
323.15 K | 1.76e-05 | 1405.41 | –
323.21 K | – | – | 1216.2

[1]
Conditions | surface tension liquid-gas [mN/m]
288.15 K | 35.04
293.15 K | 34.87
298.15 K | 34.61
303.15 K | 34.37
308.15 K | 34.14
313.15 K | 33.94
318.15 K | 33.72
323.15 K | 33.48

CCCC[N+]1(C)CCCC1.O=S(=O)([N-]S(=O)(=O)C(F)(F)F)C(F)(F)F + CC#N
[2]
Conditions | mass density, 288.15 K [kg/m3] | mass density, 298.15 K [kg/m3] | mass density, 308.15 K [kg/m3] | surface tension liquid-gas, 288.15 K [mN/m] | surface tension liquid-gas, 298.15 K [mN/m] | surface tension liquid-gas, 308.15 K [mN/m] | viscosity, 288.15 K [mPa·s] | viscosity, 298.15 K [mPa·s] | viscosity, 308.15 K [mPa·s]
x1 = 0.053 | 941.8 | 931.2 | 920.5 | 30.92 | 29.78 | 28.55 | – | – | –
x1 = 0.1924 | – | – | – | – | – | – | 2.41 | 2.02 | 1.73
x1 = 0.1989 | 1156.4 | 1146.2 | 1136.2 | 32.45 | 31.45 | 30.57 | – | – | –
x1 = 0.3593 | 1263.1 | 1253.5 | 1243.9 | 33.18 | 32.48 | 31.76 | – | – | –
x1 = 0.4602 | – | – | – | – | – | – | 13.16 | 9.79 | 7.56
x1 = 0.5201 | 1322.1 | 1312.7 | 1303.4 | 33.45 | 32.84 | 32.2 | – | – | –
x1 = 0.598 | – | – | – | – | – | – | 26.33 | 18.47 | 13.58
x1 = 0.6103 | 1344.7 | 1335.5 | 1326.4 | 33.51 | 32.97 | 32.44 | – | – | –
x1 = 0.788 | 1377.3 | 1368.3 | 1359.2 | 33.58 | 33.13 | 32.68 | – | – | –
x1 = 0.8159 | – | – | – | – | – | – | 65.88 | 42.55 | 29.18
x1 = 0.9394 | 1396.6 | 1387.8 | 1379 | 33.71 | 33.2 | 32.72 | – | – | –
x1 = 1 | 1403.4 | 1394.5 | 1385.7 | 33.71 | 33.22 | 32.82 | – | – | –

CCCC[N+]1(C)CCCC1.O=S(=O)([N-]S(=O)(=O)C(F)(F)F)C(F)(F)F + CO
[2]
Conditions | mass density, 288.15 K [kg/m3] | mass density, 298.15 K [kg/m3] | mass density, 308.15 K [kg/m3] | surface tension liquid-gas, 288.15 K [mN/m] | surface tension liquid-gas, 298.15 K [mN/m] | surface tension liquid-gas, 308.15 K [mN/m] | viscosity, 288.15 K [mPa·s] | viscosity, 298.15 K [mPa·s] | viscosity, 308.15 K [mPa·s]
x1 = 0.0495 | 970.4 | 960.7 | 951.1 | 24.36 | 23.54 | 22.73 | – | – | –
x1 = 0.1886 | 1186.4 | 1176.8 | 1167.3 | 26.9 | 26.36 | 25.86 | – | – | –
x1 = 0.2054 | – | – | – | – | – | – | 5.04 | 3.91 | 3.11
x1 = 0.3407 | 1281.7 | 1272.3 | 1263 | 29.25 | 28.95 | 28.63 | – | – | –
x1 = 0.4365 | – | – | – | – | – | – | 17.5 | 12.51 | 9.35
x1 = 0.4932 | 1332.2 | 1323 | 1313.8 | 31.03 | 30.85 | 30.54 | – | – | –
x1 = 0.5394 | – | – | – | – | – | – | 26.71 | 18.54 | 13.51
x1 = 0.6076 | 1356.2 | 1347 | 1338 | 32.08 | 31.67 | 31.36 | – | – | –
x1 = 0.637 | 1361.2 | 1352.1 | 1343 | 32.25 | 31.94 | 31.65 | – | – | –
x1 = 0.7067 | – | – | – | – | – | – | 49.43 | 32.82 | 23.02
x1 = 0.801 | 1384 | 1375 | 1366.1 | 33.23 | 32.77 | 32.33 | – | – | –
x1 = 0.8363 | 1388.1 | 1379.1 | 1370.3 | – | – | – | – | – | –
x1 = 0.9135 | 1395.6 | 1386.7 | 1377.9 | 33.57 | 33.1 | 32.65 | – | – | –
x1 = 1 | 1403.4 | 1394.5 | 1385.7 | 33.71 | 33.22 | 32.82 | – | – | –

CC#N [acetonitrile]
[1]
Conditions | surface tension liquid-gas [mN/m]
288.15 K | 29.53
298.15 K | 28.34
308.15 K | 27.15

[1], 101 kPa
Conditions | mass density [kg/m3]
288.15 K | 787.2
298.15 K | 776.53
308.15 K | 765.7

CC#N [acetonitrile] + CCCC[N+]1(C)CCCC1.O=S(=O)([N-]S(=O)(=O)C(F)(F)F)C(F)(F)F
[2], x2 = 0
Conditions | mass density [kg/m3] | surface tension liquid-gas [mN/m]
288.15 K | 787.2 | 29.53
298.15 K | 776.5 | 28.34
308.15 K | 765.7 | 27.15

CO [methanol]
[1]
Conditions | surface tension liquid-gas [mN/m]
288.15 K | 22.88
298.15 K | 22
308.15 K | 21.01

[1], 101 kPa
Conditions | mass density [kg/m3]
288.15 K | 795.8
298.15 K | 786.45
308.15 K | 777

CO [methanol] + CCCC[N+]1(C)CCCC1.O=S(=O)([N-]S(=O)(=O)C(F)(F)F)C(F)(F)F
[2], x2 = 0
Conditions | mass density [kg/m3] | surface tension liquid-gas [mN/m]
288.15 K | 795.8 | 22.88
298.15 K | 786.4 | 22
308.15 K | 777 | 21.01
